The values that follow come from ChEMBL document CHEMBL1128645, “Synthesis and antiviral activity of phosphonate derivatives of enantiomeric dihydro-2H-pyranyl nucleosides” (Bioorg Med Chem Lett, 1995).

As usually defined, the half-life is the time in which the quantity being followed falls by half. Low values mean rapid decline, high ones slow decline.

Calls of active or inactive are those of the source. No cut-off for these calls is given here.

The subject of series [1] is Human immunodeficiency virus 2. Nature of the series: Antiviral activity against human immunodeficiency virus(HIV-2); no activity. It is filed as functional, organism-based.
Series [2] concerns Human alphaherpesvirus 2. Nature of the series: Antiviral activity against herpes simplex virus (HSV-2); no activity. It is filed as functional, organism-based.
Series [3] concerns Human immunodeficiency virus 1. Nature of the series: Antiviral activity against human immunodeficiency virus(HIV-1); no activity. It is filed as functional, organism-based.
In series [4] the test system is Human alphaherpesvirus 3. Nature of the series: Antiviral activity against Varicella-Zoster virus (VZV); no activity. It is filed as functional, organism-based.
Series [5] relates to Cytomegalovirus. Nature of the series: Antiviral activity against cytomegalovirus (CMV); no activity. It is filed as functional, organism-based.
Series [6] concerns Human alphaherpesvirus 1. Nature of the series: Antiviral activity against herpes simplex virus (HSV-1); no activity. It is filed as functional, organism-based.
A short description of series [7]: Half life at pH 3. It is filed as ADME. The conditions noted are these: buffer.

In the case of `Nc1nc(O)c2ncn([C@H]3C=C[C@@H](OCP(=O)(O)O)OC3)c2n1`, the result in series [1], in series [2], in series [3], in series [4], in series [5] and in series [6] was inactive.

Consider `Nc1nc(O)c2ncn([C@@H]3C=C[C@H](OCP(=O)(O)O)OC3)c2n1`, for which the result in series [1], in series [2], in series [3], in series [4], in series [5] and in series [6] was inactive.

On to `Nc1nc(O)c2ncn([C@H]3C=C[C@@H](OCP(=O)(O)O)CO3)c2n1`, for which the half-life in series [7] is 5 h.
